The source of these data is patent publication US12275731B2, “Azaindole inhibitors of wild-type and mutant forms of LRRK2” (DANA-FARBER CANCER INSTITUTE, INC., priority 2018, dated 2025).

Each structure is given as a SMILES string.

Holding throughout (experiment): KinomeScan profiling
Assay type in all cases: binding

Assay [1] has as its target T1, ABL1(F317L)-phosphorylated (Homo sapiens, UniProt P00519, F317L).
T1 construct: purchased KinomeScan®
The conditions noted are these: read-out: % control. The procedure, abridged: (§1)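 Test agents were profiled at a single concentration of 1 μM (DMSO vehicle) on a near-complete set of 468 kinases. Signal is reported relative to vehicle (100%) and a fully displacing control (0%).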

The target of assay [2] is T2, DLK (Homo sapiens, UniProt Q12852).
T2 sequence (Q12852 1-859): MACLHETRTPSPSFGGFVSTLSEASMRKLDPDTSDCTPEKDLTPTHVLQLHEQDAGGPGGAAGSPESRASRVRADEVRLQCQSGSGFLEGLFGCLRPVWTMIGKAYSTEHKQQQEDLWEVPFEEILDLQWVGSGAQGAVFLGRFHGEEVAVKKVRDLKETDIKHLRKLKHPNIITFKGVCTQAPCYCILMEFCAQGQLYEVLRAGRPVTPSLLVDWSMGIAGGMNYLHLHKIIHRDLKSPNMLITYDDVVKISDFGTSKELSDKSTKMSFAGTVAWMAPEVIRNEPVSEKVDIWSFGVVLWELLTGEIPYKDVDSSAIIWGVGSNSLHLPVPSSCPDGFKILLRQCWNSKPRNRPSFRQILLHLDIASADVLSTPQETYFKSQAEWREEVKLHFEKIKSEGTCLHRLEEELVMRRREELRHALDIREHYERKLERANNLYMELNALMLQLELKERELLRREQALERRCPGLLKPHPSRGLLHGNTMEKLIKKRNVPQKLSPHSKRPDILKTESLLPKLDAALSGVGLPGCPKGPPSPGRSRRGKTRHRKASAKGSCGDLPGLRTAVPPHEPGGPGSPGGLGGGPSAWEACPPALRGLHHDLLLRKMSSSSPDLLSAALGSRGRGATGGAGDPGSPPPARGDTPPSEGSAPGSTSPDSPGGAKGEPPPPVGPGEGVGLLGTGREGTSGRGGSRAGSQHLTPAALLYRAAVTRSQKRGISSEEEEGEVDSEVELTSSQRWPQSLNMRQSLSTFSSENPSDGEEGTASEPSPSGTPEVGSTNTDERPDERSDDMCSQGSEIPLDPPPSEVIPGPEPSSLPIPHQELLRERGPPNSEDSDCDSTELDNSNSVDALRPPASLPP
The following applies: read-out: % control. A digest of the protocol:
as §1

The target of assay [3] is T3, SRPK1 (Homo sapiens, UniProt Q96SB4).
T3 construct: purchased KinomeScan® (panel service)
The conditions noted are these: SRPK1, 1 μM; read-out: % control. A digest of the protocol: as §1

Assay [4] addresses VRK2 (Homo sapiens, UniProt Q86Y07). The conditions noted are these: VRK2, 1 μM; read-out: % control. A digest of the protocol:
as §1

In assay [5] the target is T4, AKT2 (Homo sapiens, UniProt P31751).
T4 construct: purchased KinomeScan®
The following applies: AKT2, 1 μM; read-out: % control. The procedure, abridged:
as §1

For assay [6], the target named is T5, RIPK5 (Homo sapiens, UniProt Q6XUX3).
T5 sequence (Q6XUX3 1-929): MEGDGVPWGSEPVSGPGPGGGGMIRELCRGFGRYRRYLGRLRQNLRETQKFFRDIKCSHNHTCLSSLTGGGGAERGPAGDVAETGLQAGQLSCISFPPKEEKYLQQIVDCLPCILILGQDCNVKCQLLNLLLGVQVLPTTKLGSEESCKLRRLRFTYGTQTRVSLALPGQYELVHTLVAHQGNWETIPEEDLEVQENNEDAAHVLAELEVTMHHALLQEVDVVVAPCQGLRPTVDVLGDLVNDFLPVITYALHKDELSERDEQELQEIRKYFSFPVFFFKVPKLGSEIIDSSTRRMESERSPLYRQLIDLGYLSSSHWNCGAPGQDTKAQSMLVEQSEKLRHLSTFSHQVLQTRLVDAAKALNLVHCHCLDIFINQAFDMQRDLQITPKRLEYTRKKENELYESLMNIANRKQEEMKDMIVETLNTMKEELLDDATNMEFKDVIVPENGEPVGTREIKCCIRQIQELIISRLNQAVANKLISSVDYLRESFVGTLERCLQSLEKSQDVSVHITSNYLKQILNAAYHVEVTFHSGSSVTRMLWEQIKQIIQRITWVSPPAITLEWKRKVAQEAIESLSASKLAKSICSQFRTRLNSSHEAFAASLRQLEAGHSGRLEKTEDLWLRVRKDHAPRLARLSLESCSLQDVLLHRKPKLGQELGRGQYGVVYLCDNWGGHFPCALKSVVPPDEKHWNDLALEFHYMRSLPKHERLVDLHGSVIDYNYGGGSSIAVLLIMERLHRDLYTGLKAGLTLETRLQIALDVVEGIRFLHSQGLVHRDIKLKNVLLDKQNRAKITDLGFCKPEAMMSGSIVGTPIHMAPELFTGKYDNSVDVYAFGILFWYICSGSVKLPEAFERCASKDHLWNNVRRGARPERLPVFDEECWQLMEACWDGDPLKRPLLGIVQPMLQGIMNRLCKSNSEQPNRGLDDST
The conditions noted are these: RIPK5, 1 μM; read-out: % control. A digest of the protocol: as §1

The target in assay [7] is NIK (Homo sapiens, UniProt Q99558). The following applies: read-out: % control. The procedure, abridged: as §1
Assay [8] deals with T6, ABL1(E255K)-phosphorylated (Homo sapiens, UniProt P00519, E255K).
T6 construct: purchased KinomeScan®
The following applies: read-out: % control. A digest of the protocol: as §1

The target of assay [9] is T7, MYLK4 (Homo sapiens, UniProt Q86YV6).
T7 sequence (Q86YV6 1-388): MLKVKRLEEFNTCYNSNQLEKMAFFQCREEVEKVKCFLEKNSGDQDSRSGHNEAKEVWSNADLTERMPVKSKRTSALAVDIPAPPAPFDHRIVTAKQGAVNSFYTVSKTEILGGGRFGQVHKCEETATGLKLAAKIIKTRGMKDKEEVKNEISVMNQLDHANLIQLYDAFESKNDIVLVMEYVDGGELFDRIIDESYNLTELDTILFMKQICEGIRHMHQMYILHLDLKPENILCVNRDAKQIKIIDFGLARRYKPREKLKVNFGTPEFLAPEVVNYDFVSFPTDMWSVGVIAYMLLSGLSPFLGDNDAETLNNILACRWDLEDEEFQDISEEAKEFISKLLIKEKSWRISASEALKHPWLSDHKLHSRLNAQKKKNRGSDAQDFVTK
The following applies: MYLK4, 1 μM; read-out: % control. A digest of the protocol:
as §1

T3 sequence (Q96SB4 whole entry): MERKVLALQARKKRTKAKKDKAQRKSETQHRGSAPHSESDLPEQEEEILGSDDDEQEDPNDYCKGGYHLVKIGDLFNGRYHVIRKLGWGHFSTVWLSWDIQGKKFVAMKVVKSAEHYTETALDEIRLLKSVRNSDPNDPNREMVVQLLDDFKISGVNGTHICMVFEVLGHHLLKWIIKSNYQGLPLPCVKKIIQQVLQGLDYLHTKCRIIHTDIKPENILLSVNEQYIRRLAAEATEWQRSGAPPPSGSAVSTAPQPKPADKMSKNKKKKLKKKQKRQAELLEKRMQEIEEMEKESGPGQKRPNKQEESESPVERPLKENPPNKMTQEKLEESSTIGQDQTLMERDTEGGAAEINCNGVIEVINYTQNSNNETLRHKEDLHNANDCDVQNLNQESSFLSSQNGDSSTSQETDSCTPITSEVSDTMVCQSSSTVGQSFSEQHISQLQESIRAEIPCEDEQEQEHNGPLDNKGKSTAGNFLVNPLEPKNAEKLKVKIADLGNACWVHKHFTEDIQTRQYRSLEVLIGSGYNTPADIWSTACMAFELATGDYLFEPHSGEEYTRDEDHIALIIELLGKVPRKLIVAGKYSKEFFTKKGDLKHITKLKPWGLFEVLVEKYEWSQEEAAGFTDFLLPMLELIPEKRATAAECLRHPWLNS
NIK, sequence (Q99558 whole entry): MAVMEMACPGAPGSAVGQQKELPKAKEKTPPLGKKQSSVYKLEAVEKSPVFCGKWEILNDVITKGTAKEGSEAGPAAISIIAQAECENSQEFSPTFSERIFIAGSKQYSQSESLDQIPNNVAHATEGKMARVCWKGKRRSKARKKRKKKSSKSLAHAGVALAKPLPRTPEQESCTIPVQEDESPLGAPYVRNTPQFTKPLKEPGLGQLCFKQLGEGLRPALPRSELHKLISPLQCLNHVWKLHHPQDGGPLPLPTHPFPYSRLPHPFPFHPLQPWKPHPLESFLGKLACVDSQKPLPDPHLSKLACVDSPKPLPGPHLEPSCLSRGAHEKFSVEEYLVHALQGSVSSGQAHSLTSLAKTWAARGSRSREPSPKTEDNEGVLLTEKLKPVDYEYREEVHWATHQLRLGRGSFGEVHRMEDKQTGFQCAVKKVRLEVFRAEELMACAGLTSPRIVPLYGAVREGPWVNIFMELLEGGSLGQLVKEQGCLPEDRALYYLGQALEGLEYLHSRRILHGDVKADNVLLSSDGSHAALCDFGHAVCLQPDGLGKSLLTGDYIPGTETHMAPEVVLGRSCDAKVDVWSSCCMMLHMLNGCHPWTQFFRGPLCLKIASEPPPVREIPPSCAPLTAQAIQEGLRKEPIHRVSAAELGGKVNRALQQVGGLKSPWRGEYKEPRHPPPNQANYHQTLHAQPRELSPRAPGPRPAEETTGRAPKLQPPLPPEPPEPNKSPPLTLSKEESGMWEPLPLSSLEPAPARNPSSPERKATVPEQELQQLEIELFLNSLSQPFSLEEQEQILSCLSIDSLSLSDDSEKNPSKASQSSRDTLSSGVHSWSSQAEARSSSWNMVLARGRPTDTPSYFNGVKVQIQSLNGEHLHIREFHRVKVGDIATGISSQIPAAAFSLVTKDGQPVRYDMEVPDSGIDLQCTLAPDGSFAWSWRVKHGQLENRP
VRK2, sequence (Q86Y07 whole entry): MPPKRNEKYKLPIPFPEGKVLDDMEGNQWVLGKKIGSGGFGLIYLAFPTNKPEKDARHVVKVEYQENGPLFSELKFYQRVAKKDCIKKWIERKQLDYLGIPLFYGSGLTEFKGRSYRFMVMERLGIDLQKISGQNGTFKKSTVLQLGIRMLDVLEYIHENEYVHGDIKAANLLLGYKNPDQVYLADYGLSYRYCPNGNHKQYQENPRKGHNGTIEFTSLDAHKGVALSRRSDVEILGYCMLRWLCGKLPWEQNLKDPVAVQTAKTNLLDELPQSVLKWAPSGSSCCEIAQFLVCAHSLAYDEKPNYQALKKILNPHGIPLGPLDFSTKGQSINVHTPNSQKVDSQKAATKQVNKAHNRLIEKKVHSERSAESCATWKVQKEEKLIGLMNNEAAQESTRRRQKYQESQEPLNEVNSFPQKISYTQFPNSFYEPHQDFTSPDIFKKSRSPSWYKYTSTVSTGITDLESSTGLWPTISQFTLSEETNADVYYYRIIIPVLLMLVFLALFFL
T6 sequence (P00519 whole entry E255K): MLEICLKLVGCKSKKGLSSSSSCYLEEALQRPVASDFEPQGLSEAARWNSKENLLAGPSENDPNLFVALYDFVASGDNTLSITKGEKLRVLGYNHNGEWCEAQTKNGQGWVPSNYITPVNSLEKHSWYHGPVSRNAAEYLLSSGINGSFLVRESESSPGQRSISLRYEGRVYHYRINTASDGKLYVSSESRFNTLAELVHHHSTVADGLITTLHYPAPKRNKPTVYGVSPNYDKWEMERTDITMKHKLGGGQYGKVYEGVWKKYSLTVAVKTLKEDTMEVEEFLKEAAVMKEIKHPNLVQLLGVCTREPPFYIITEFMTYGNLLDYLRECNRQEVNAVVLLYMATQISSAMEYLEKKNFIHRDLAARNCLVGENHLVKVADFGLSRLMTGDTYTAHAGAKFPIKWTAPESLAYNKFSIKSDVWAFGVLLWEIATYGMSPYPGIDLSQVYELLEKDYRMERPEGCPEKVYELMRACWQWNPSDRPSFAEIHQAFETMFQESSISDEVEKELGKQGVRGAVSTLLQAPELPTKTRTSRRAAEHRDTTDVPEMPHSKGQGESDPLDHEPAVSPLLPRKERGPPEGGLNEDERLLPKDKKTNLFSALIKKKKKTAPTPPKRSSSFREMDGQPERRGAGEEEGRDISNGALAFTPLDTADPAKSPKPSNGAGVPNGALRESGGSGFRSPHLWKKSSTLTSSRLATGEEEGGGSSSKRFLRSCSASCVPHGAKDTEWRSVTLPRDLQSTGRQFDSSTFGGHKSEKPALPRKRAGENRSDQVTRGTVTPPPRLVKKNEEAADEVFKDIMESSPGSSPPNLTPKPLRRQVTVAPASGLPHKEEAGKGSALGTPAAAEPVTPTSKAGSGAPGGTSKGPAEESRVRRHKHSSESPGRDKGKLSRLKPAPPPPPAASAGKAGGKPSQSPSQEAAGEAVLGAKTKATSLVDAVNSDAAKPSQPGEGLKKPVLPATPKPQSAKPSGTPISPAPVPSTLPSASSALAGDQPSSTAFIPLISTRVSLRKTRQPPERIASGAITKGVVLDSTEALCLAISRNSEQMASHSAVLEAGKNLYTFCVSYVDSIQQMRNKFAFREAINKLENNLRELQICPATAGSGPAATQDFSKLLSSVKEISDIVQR
T1 sequence (P00519 whole entry F317L): as the sequence (P00519 whole entry E255K) above, with K255E, F317L counted along it
T4 sequence (P31751 whole entry): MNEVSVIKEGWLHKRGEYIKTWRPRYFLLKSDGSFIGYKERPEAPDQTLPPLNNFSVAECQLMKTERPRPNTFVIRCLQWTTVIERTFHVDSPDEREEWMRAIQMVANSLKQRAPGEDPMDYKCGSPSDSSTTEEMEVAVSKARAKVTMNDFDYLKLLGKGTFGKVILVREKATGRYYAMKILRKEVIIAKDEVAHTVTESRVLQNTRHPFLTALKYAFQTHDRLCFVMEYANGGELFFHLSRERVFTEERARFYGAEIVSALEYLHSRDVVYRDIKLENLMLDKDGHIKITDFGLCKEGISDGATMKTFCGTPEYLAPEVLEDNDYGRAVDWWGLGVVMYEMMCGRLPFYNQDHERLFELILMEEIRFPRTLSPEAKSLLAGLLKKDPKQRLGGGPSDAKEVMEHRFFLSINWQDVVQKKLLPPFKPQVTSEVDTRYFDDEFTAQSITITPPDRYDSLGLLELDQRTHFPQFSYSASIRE

With `CNc1c(-c2cnn([C@H]3CCN(C(C)=O)C[C@@H]3F)c2)cnc2[nH]cc(Cl)c12` [Compound 77, 1-((3S,4S)-4-(4-(3-chloro-4-(methylamino)-1H-pyrrolo[2,3-b]pyridin-5-yl)-1H-pyrazol-1-yl)-3-fluoropiperidin-1-yl)ethan-1-one], the remaining binding at 1 µM was 91% in assay [1]; 14% in assay [2]; 10% in assay [3]; 66% in assay [4]; 100% in [5]; 31% in [6]. Moreover, the values for the remaining binding at 1 µM in assay [7], in assay [8] and in [9] were 55%, 73% and 90%, respectively.

`CNc1c(-c2ccc(C(=O)N3CCC(N4CCOCC4)CC3)cc2)cnc2[nH]cc(Cl)c12` [Compound 96, (4-(3-chloro-4-(methylamino)-1H-pyrrolo[2,3-b]pyridin-5-yl)phenyl)(4-morpholinopiperidin-1-yl)methanone]: the remaining binding at 1 µM in assay [1] amounted to 81%; in [2], 24%; in assay [3], 17%; in [4], 79%; in assay [5], 100%; in assay [6], 8.6%. Also, the remaining binding at 1 µM in assay [7] was found to be 13%; in assay [8] it was 92%; in assay [9], 100%.

As for `O=C(c1ccc(-c2cnc3[nH]cc(Cl)c3c2NC2CCCC2)cc1)N1CCC(N2CCOCC2)CC1` [Compound 101, (4-(3-chloro-4-(cyclopentylamino)-1H-pyrrolo[2,3-b]pyridin-5-yl)phenyl)(4-morpholinopiperidin-1-yl)methanone], the remaining binding at 1 µM in assay [1] came out at 43%; in [2], 65%; in assay [3] it was 27%; in assay [4], 100%; in assay [5], 84%; in assay [6], 50%. In addition, the remaining binding at 1 µM in assay [7] worked out at 88%; in assay [8], 100%; in assay [9], 95%.
